Measured values: patent publication US4205164A, “Antibiotic A201C, A201D and A201E” (priority 1979, dated 1980)
Values after ≈ are worked out from the molar mass of the structure shown. Read-outs that look alike come from different tables or passages of the source.

Key:
[1] = test system: Staph. aureus X1.1; assay: MIC by standard agar-dilution test, Staph. aureus X1.1; type: cell-based; conditions: Staphylococcus aureus; Staph. aureus X1.1, agar dilution
From the text: (§1) The minimal inhibitory concentrations (MIC's) at which A201C, A201D, and A201E inhibit selected Gram positive bacteria, as determined by standard agar-dilution tests, are summarized in Table I: […]

[2] = test system: Streptococcus C203; assay: MIC by standard agar-dilution test, Streptococcus C203; type: cell-based
From the text: as §1

[3] = test system: Staph. aureus V41; assay: MIC by standard agar-dilution test, Staph. aureus V41; type: cell-based; conditions: Staphylococcus aureus
From the text: as §1

[4] = test system: Streptococcus 9960; assay: MIC by standard agar-dilution test, Streptococcus 9960; type: cell-based; conditions: Streptococcus 9960, agar dilution
From the text: as §1

[5] = test system: H. influ. HOLT; assay: MIC by standard agar-dilution test, H. influ. HOLT; type: cell-based
[6] = test system: experimental bacterial infections; assay: In vivo therapeutic activity against experimental bacterial infections (general statement); conditions: mice
Experimental: (§2) One hour and five hours later the mice are given a subcutaneous (S.C.) dose of the compound in 60% propylene glycol. The compound is administered at five different dosage levels (eight mice for each dosage level). The animals are observed for 7 days and the number of survivors is noted. For each organism, the ED50 value is calculated using the method of W. Wick, J. Bacteriol. 81, 233 (1961).

[7] = test system: Staph. aureus S13E; assay: MIC by standard agar-dilution test, Staph. aureus S13E; type: cell-based; conditions: Staphylococcus aureus
From the text: as §1

[8] = test system: Diplococcus pneumoniae Park I; assay: Therapy of mouse infection, Diplococcus pneumoniae Park I; type: in vivo, Mice; conditions: 1 and 5 hour post infection, 7 days
Experimental: as §2
(§3) ^b Compound administered subcutaneously (S.C.), 1 and 5 hour post

[9] = test system: Streptococcus pyogenes C203; assay: Therapy of mouse infection, Streptococcus pyogenes C203; type: in vivo, Mice; conditions: 1 and 5 hour post infection, 7 days
Experimental: as §2, §3

[10] = test system: Streptococcus Park; assay: MIC by standard agar-dilution test, Streptococcus Park; type: cell-based
From the text: as §1

[11] = test system: Staph. aureus X400; assay: MIC by standard agar-dilution test, Staph. aureus X400; type: cell-based; conditions: Staphylococcus aureus
From the text: as §1

[12] = pKa; type: physicochemical; conditions: 66% dmf-h2o
[13] = test system: Staphylococcus aureus 3055; assay: Therapy of mouse infection, Staphylococcus aureus 3055; type: in vivo, Mice; conditions: 1 and 5 hour post infection, 7 days
Experimental: as §2, §3

[14] = test system: H. influ. R252; assay: MIC by standard agar-dilution test, H. influ. R252; type: cell-based
[15] = test system: Streptococcus X66; assay: MIC by standard agar-dilution test, Streptococcus X66; type: cell-based
From the text: as §1

[16] = test system: Staph. epi. Epi1; assay: MIC by standard agar-dilution test, Staph. epi. Epi1; type: cell-based
From the text: as §1

[17] = test system: pathogenic microorganisms, particularly Gram positive bacteria; assay: Inhibition of growth of pathogenic microorganisms (general statement); type: cell-based
[18] = test system: Staph. epi. Epi2; assay: MIC by standard agar-dilution test, Staph. epi. Epi2; type: cell-based
From the text: as §1

[19] = H. influ. R252, agar dilution, read-out: MIC

Structure (SMILES): COC(COC1OC(C)C(OC)C(OC)C1O)=C1OC(Oc2ccc(C=C(C)C(=O)NC3C(CO)OC(n4cnc5c(N(C)C)ncnc54)C3O)cc2O)C(O)C1O (stereo not drawn) [Factor C]
- MIC [1]: 8 µg/mL (≈ 9.77 µM)
- MIC [2]: 1 µg/mL (≈ 1.22 µM)
- MIC ([3]; V41): > 128 µg/mL
- MIC [4]: > 128 µg/mL
- MIC [5]: 132 µg/mL (≈ 161 µM)
- in vivo therapeutic activity against experimental bacterial infections ([6]; listed as A201C): has shown in vivo therapeutic activity against experimental bacterial infections
- in vivo therapeutic activity against experimental bacterial infections ([6]; listed as Formula II): has shown in vivo therapeutic activity against experimental bacterial infections in mice
- MIC [7]: 8 µg/mL (≈ 9.77 µM)
- Survivors/Total No. of Mice ([8]; 4.378 mg/kg S.C.): 0/8
- Survivors/Total No. of Mice ([8]; 8.75 mg/kg S.C.): 0/8
- Survivors/Total No. of Mice ([8]; 17.5 mg/kg S.C.): 0/8
- Survivors/Total No. of Mice ([8]; 35 mg/kg S.C.): 0/8
- Survivors/Total No. of Mice ([8]; 70 mg/kg S.C.): 0/8
- ED50 ([8]; Streptococcus pneumoniae, sc, 168 h, S.C., IP infection 260 LD50's): > 70 mg/kg
- Survivors/Total No. of Mice ([9]; 2.19 mg/kg S.C.): 0/8
- Survivors/Total No. of Mice ([9]; 4.375 mg/kg S.C.): 4/8
- Survivors/Total No. of Mice ([9]; 8.75 mg/kg S.C.): 6/8
- Survivors/Total No. of Mice ([9]; 17.5 mg/kg S.C.): 8/8
- Survivors/Total No. of Mice ([9]; 35 mg/kg S.C.): 8/8
- ED50 ([9]; Streptococcus pyogenes, C203, sc, 168 h, S.C., IP infection 243 LD50's): 5.3 mg/kg
- MIC [10]: 8 µg/mL (≈ 9.77 µM)
- MIC [11]: 8 µg/mL (≈ 9.77 µM)
- pKa [12]: 11.4
- Survivors/Total No. of Mice ([13]; 2.19 mg/kg S.C.): 0/8
- Survivors/Total No. of Mice ([13]; 4.375 mg/kg S.C.): 1/8
- Survivors/Total No. of Mice ([13]; 8.75 mg/kg S.C.): 3/8
- Survivors/Total No. of Mice ([13]; 17.5 mg/kg S.C.): 0/8
- Survivors/Total No. of Mice ([13]; 35 mg/kg S.C.): 5/8
- ED50 ([13]; Staphylococcus aureus, 3055, sc, 168 h, S.C., IP infection 260 LD50's): 26 mg/kg
- MIC [14]: 32 µg/mL (≈ 39.1 µM)
- MIC [15]: 64 µg/mL (≈ 78.2 µM)
- MIC [16]: 128 µg/mL (≈ 156 µM)
- inhibition of growth of pathogenic microorganisms [17]: inhibit the growth of certain pathogenic microorganisms, particularly Gram positive bacteria
- MIC [18]: 64 µg/mL (≈ 78.2 µM)

Structure (SMILES): COC(CO)=C1OC(Oc2ccc(C=C(C)C(=O)NC3C(CO)OC(n4cnc5c(N(C)C)ncnc54)C3O)cc2)C(O)C1O (stereo not drawn) [Factor D]
- MIC [1]: 32 µg/mL (≈ 50.9 µM)
- MIC [2]: 8 µg/mL (≈ 12.7 µM)
- MIC ([3]; V41): > 128 µg/mL
- MIC [4]: > 128 µg/mL
- MIC [5]: 128 µg/mL (≈ 204 µM)
- MIC [7]: 32 µg/mL (≈ 50.9 µM)
- MIC [10]: 64 µg/mL (≈ 102 µM)
- MIC [11]: 64 µg/mL (≈ 102 µM)
- MIC [14, 19]: 64 µg/mL (≈ 102 µM)
- MIC [15]: > 128 µg/mL
- MIC [16]: 128 µg/mL (≈ 204 µM)
- inhibition of growth of pathogenic microorganisms [17]: inhibit the growth of certain pathogenic microorganisms, particularly Gram positive bacteria
- MIC [18]: 128 µg/mL (≈ 204 µM)

Structure (SMILES): COC(COC1OC(C)C(OC)C(OC)C1O)=C1OC(Oc2ccc(C=C(C)C(=O)NC3C(CO)OC(n4cnc5c(N(C)C)ncnc54)C3O)cc2)C(O)C1O (stereo not drawn) [Factor A201A, reference compound]
- MIC [1]: 1 µg/mL (≈ 1.25 µM)
- MIC [2]: 0.25 µg/mL (≈ 0.311 µM)
- MIC ([3]; Staph. aureus V41, agar dilution, read-out: MIC): 16 µg/mL (≈ 19.9 µM)
- MIC [4]: 64 µg/mL (≈ 79.7 µM)
- MIC [5]: 8 µg/mL (≈ 9.96 µM)
- MIC [7]: 1 µg/mL (≈ 1.25 µM)
- MIC [10]: 4 µg/mL (≈ 4.98 µM)
- MIC [11]: 1 µg/mL (≈ 1.25 µM)
- MIC [14, 19]: 4 µg/mL (≈ 4.98 µM)
- MIC [15]: 8 µg/mL (≈ 9.96 µM)
- MIC [16]: 16 µg/mL (≈ 19.9 µM)
- MIC [18]: 8 µg/mL (≈ 9.96 µM)

Structure (SMILES): COC(COC1OC(C)C(OC)C(OC)C1O)C1OC(Oc2ccc(C=C(C)C(=O)NC3C(CO)OC(n4cnc5c(N(C)C)ncnc54)C3O)cc2)C(O)C1O (stereo not drawn) [Factor E]
- MIC [1]: 16 µg/mL (≈ 19.9 µM)
- MIC [2]: 1 µg/mL (≈ 1.24 µM)
- MIC ([3]; V41): 128 µg/mL (≈ 159 µM)
- MIC [4]: > 128 µg/mL
- MIC [5]: 32 µg/mL (≈ 39.8 µM)
- MIC [7]: 16 µg/mL (≈ 19.9 µM)
- MIC [10]: 16 µg/mL (≈ 19.9 µM)
- MIC [11]: 16 µg/mL (≈ 19.9 µM)
- MIC [14, 19]: 32 µg/mL (≈ 39.8 µM)
- MIC [15]: 64 µg/mL (≈ 79.5 µM)
- MIC [16]: 64 µg/mL (≈ 79.5 µM)
- inhibition of growth of pathogenic microorganisms [17]: inhibit the growth of certain pathogenic microorganisms, particularly Gram positive bacteria
- MIC [18]: 64 µg/mL (≈ 79.5 µM)
